In the oligonucleotide strings, read from the 5' end, every base follows the letter of its sugar. An asterisk marks phosphorothioate; unmarked linkages are phosphodiester. Other units and linkages are bracketed, terminal groups are in braces. A string of capitals states the bases alone. e = 2'-O-(2-methoxyethyl) (MOE); [5mC] = 5-methylcytosine; d = 2'-deoxy (DNA)
System: human apolipoprotein B mRNA
Test: Inhibition of human apolipoprotein B mRNA levels in HepG2 cells, quantitative real-time PCR
Format: cell-based
Details: for % INHIB / % INHIB 50 nm / % INHIB 150 nm / % Change in apolipoprotein B mRNA expression / % inhibition of apolipoprotein B mRNA levels: HepG2 cells; for % INHIB (inhibition of human apolipoprotein B mRNA levels): HepG2 cells treated with 150 nM of compound, quantitative real-time PCR; for % inhibition of apolipoprotein B mRNA levels: normalized to untreated control, average of two experiments
Summary of the method: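 HepG2 cells at 80% confluency were transfected with antisense oligonucleotide using 3.75 μg/mL Lipofectin in Opti-MEM for 4-7 h and harvested 16-24 h after treatment. Apolipoprotein B mRNA was measured by real-time RT-PCR and normalized to GAPDH or RiboGreen total RNA. Percent inhibition came from untreated-control standard curves.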

[1] = human apolipoprotein B mRNA, oligonucleotides targeting genomic sequence SEQ ID NO 334, averages from two experiments
[2] = Table 11 gene walk, 50 nM, averages from two experiments
[3] = Table 11 gene walk, 150 nM, averages from two experiments
[4] = 50 nm oligonucleotide, variable deoxy gap position
[5] = 150 nm oligonucleotide, variable deoxy gap position
[6] = Table 15, 150 nM, averages from two experiments

## 301155 (eA*eA*eA*eG*eA*dA*dT*dT*dA*d[5mC]*d[5mC]*d[5mC]*dT*d[5mC]*d[5mC]*eA*e[5mC]*eT*eG*eA; antisense) [compound 301155]
[1]
  % INHIB: 33%

## 301018 (e[5mC]*eT*e[5mC]*e[5mC]*eT*d[5mC]*dA*dG*d[5mC]*dG*dG*d[5mC]*dA*dG*d[5mC]*eA*eA*e[5mC]*e[5mC]*eG; antisense) [compound 301018]
Averages from two experiments
  % INHIB (inhibition of human apolipoprotein B mRNA levels): 45%

## 301202 (antisense e[5mC]*eA*eG*e[5mC]*eT*d[5mC]*dA*d[5mC]*dA*d[5mC]*dT*dT*dA*dT*dT*eT*eT*eA*eA*eA) [compound 301202]
[1]
  % INHIB: 7%

## 308610 (eA*e[5mC]*e[5mC]*eA*eG*d[5mC]*d[5mC]*dA*d[5mC]*dA*dT*dG*d[5mC]*dA*dG*e[5mC]*eT*eT*e[5mC]*eA; antisense) [compound 308610]
[2]
  % INHIB 50 nm: 40%
[3]
  % INHIB 150 nm: 90%

## 281619 (antisense e[5mC]*eT*e[5mC]*eT*e[5mC]*d[5mC]*dA*dT*dT*dG*dA*dG*d[5mC]*d[5mC]*dG*eG*e[5mC]*e[5mC]*eA*eG) [compound 281619]
Averages from two experiments
  % INHIB (inhibition of human apolipoprotein B mRNA levels): 96%

## 301062 (e[5mC]*e[5mC]*eT*e[5mC]*eA*dG*d[5mC]*dG*dG*dA*d[5mC]*dA*d[5mC]*dA*d[5mC]*eA*e[5mC]*eA*e[5mC]*eA; antisense) [compound 301062]
[1]
  % INHIB: 21%

## 271012 (antisense e[5mC]*e[5mC]*e[5mC]*eA*e[5mC]*dA*dG*dA*d[5mC]*dT*dT*dG*dA*dA*dG*eT*eG*eG*eA*eG) [compound 271012]
Averages from two experiments
  % INHIB (inhibition of human apolipoprotein B mRNA levels): 55%

## 301086 (antisense eG*eG*eT*eT*eT*dT*dG*d[5mC]*dT*dG*d[5mC]*d[5mC]*d[5mC]*dT*dA*e[5mC]*eA*eT*e[5mC]*e[5mC]) [compound 301086]
[1]
  % INHIB: 30%

## 308589 (antisense e[5mC]*eT*eT*e[5mC]*eT*dG*d[5mC]*dT*dT*dG*dA*dG*dT*dT*dA*e[5mC]*eA*eA*eA*e[5mC]) [compound 308589]
[2]
  % INHIB 50 nm: 20%
[3]
  % INHIB 150 nm: 94%

## 271017 (antisense eG*eG*eT*eG*e[5mC]*d[5mC]*dT*dG*dT*d[5mC]*dT*dG*d[5mC]*dT*d[5mC]*eA*eG*e[5mC]*eT*eG) [compound 271017]
Averages from two experiments
  % INHIB (inhibition of human apolipoprotein B mRNA levels): 30%

## 332771 (antisense GCCTCAGTCTTATTCGCACC; sugars from the 5' end e5 d10 e5, all phosphorothioate, methylation of C not given here) [compound 332771]
50 nM, 24 hour (Table 40)
  % Change in apolipoprotein B mRNA expression: +37%
150 nM, 24 hour (Table 40)
  % Change in apolipoprotein B mRNA expression: +37%

## 308594 (antisense eT*eG*e[5mC]*eT*eT*d[5mC]*dG*d[5mC]*dA*d[5mC]*d[5mC]*dT*dT*d[5mC]*dT*eG*e[5mC]*eT*eT*eG) [compound 308594]
[2]
  % INHIB 50 nm: 57%
[3]
  % INHIB 150 nm: 88%

## 301057 (eT*eG*e[5mC]*eA*eG*dA*d[5mC]*dT*dA*dG*dG*dA*dG*dT*dG*eA*eA*eA*eG*eT; antisense) [compound 301057]
[1]
  % INHIB: 30%

## 308635 (GCCTCAGTCTGCTTCGCACC; 10-10-0 MOE gapmer, phosphorothioate, chemistry not fully specified) [compound 308635]
[4]
  % INHIB 50 nm: 69%
[5]
  % INHIB 150 nm: 93%

## 301186 (antisense e[5mC]*e[5mC]*eT*eT*e[5mC]*dT*dT*dT*dA*d[5mC]*d[5mC]*dT*dT*dA*dG*eG*eT*eG*eG*e[5mC]) [compound 301186]
[1]
  % INHIB: 37%

## 308658 (antisense AGGTTACCAGCCACATGCAG; 9-10-1 2'-MOE gapmer, phosphorothioate, chemistry not fully specified) [compound 308658]
12.5 nM oligonucleotide
  % inhibition of apolipoprotein B mRNA levels: 29%
37 nM oligonucleotide
  % inhibition of apolipoprotein B mRNA levels: 61%
75 nM oligonucleotide
  % inhibition of apolipoprotein B mRNA levels: 73%
150 nM oligonucleotide
  % inhibition of apolipoprotein B mRNA levels: 78%
300 nM oligonucleotide
  % inhibition of apolipoprotein B mRNA levels: 90%
[4]
  % INHIB 50 nm: 86%
[5]
  % INHIB 150 nm: 78%

## 301221 (antisense e[5mC]*eT*eA*eG*eA*dG*dG*dT*dT*dT*dT*dG*d[5mC]*dT*dG*eT*eG*e[5mC]*e[5mC]*eA) [compound 301221]
[6]
  % INHIB: 61%

## 271034 (e[5mC]*eA*e[5mC]*eT*eG*dA*dA*dG*dA*d[5mC]*d[5mC]*dG*dT*dG*dT*eG*e[5mC]*eT*e[5mC]*eT; antisense) [compound 271034]
Averages from two experiments
  % INHIB (inhibition of human apolipoprotein B mRNA levels): 35%

## 308591 (antisense eG*e[5mC]*eA*e[5mC]*e[5mC]*dT*dT*d[5mC]*dT*dG*d[5mC]*dT*dT*dG*dA*eG*eT*eT*eA*e[5mC]) [compound 308591]
[2]
  % INHIB 50 nm: 76%
[3]
  % INHIB 150 nm: 92%

## 308644 (antisense GCCTCAGTCTGCTTCGCACC; 3-10-7 2'-MOE gapmer, phosphorothioate, chemistry not fully specified) [compound 308644]
[4]
  % INHIB 50 nm: 71%
[5]
  % INHIB 150 nm: 93%

## 270998 (antisense e[5mC]*eG*e[5mC]*eT*eG*dA*dT*d[5mC]*d[5mC]*d[5mC]*dT*d[5mC]*dG*d[5mC]*d[5mC]*eA*eT*eG*eT*eT) [compound 270998]
Averages from two experiments
  % INHIB (inhibition of human apolipoprotein B mRNA levels): 1%

## 301210 (antisense e[5mC]*eT*eA*eT*eG*dG*d[5mC]*dT*dG*dA*dG*d[5mC]*dT*dT*dG*e[5mC]*e[5mC]*eT*eA*eT) [compound 301210]
[1]
  % INHIB: 33%

## 281649 (eG*e[5mC]*e[5mC]*eA*eT*d[5mC]*d[5mC]*dT*dT*d[5mC]*dT*dG*dA*dG*dT*eT*e[5mC]*eA*eG*eA; antisense) [compound 281649]
Averages from two experiments
  % INHIB (inhibition of human apolipoprotein B mRNA levels): 76%

## 281629 (antisense eT*e[5mC]*e[5mC]*eA*eA*dG*dT*d[5mC]*d[5mC]*dT*dG*dG*d[5mC]*dT*dG*eT*eA*eT*eT*e[5mC]) [compound 281629]
Averages from two experiments
  % INHIB (inhibition of human apolipoprotein B mRNA levels): 83%

## 301077 (eG*eG*e[5mC]*eA*eG*dG*dA*dG*dG*dA*dA*d[5mC]*d[5mC]*dT*d[5mC]*eG*eG*eG*e[5mC]*eA; antisense) [compound 301077]
[1]
  % INHIB: 55%

## 301223 (antisense eA*eA*eT*e[5mC]*eA*d[5mC]*dA*d[5mC]*dT*dA*dT*dG*dT*dG*dT*eT*e[5mC]*eT*eA*eG) [compound 301223]
[6]
  % INHIB: 26%

## 308631 (AGGTTACCAGCCACATGCAG; 0-10-10 MOE gapmer, phosphorothioate, chemistry not fully specified) [compound 308631]
[4]
  % INHIB 50 nm: 74%
[5]
  % INHIB 150 nm: 94%

## 301112 (antisense eG*eG*eA*eA*eA*d[5mC]*dT*d[5mC]*dA*d[5mC]*dT*dT*dG*dT*dT*eG*eA*e[5mC]*e[5mC]*eG) [compound 301112]
[1]
  % INHIB: 25%

## 301209 (antisense eA*eT*eA*eA*eA*dT*dA*dA*dT*dA*dG*dT*dG*d[5mC]*dT*eG*eA*eT*eG*eG) [compound 301209]
[1]
  % INHIB: 39%

## 301164 (antisense eG*e[5mC]*eT*eT*eT*d[5mC]*dG*d[5mC]*dA*dG*d[5mC]*dT*dG*dG*dG*e[5mC]*eA*eT*eG*e[5mC]) [compound 301164]
[1]
  % INHIB: 55%

## 271015 (antisense eT*eG*eT*eG*eT*dT*d[5mC]*d[5mC]*d[5mC]*dT*dG*dA*dA*dG*d[5mC]*eG*eG*e[5mC]*e[5mC]*eA) [compound 271015]
Averages from two experiments
  % INHIB (inhibition of human apolipoprotein B mRNA levels): 43%

## 281628 (antisense e[5mC]*eT*eA*eG*eA*d[5mC]*dA*d[5mC]*dG*dA*dG*dA*dT*dG*dA*eT*eG*eA*e[5mC]*eT) [compound 281628]
Averages from two experiments
  % INHIB (inhibition of human apolipoprotein B mRNA levels): 81%

## 301046 (eA*eG*eT*eT*eT*dA*dG*d[5mC]*dA*dA*dA*dA*dT*dA*dA*e[5mC]*eT*e[5mC]*eA*eG; antisense) [compound 301046]
Averages from two experiments
  % INHIB (inhibition of human apolipoprotein B mRNA levels): 80%

## 281638 (antisense eT*e[5mC]*e[5mC]*e[5mC]*eT*d[5mC]*dA*dT*d[5mC]*dT*dG*dA*dG*dA*dA*eT*e[5mC]*eT*eG*eG) [compound 281638]
Averages from two experiments
  % INHIB (inhibition of human apolipoprotein B mRNA levels): 66%

## 301043 (eA*eA*eA*eA*eA*dT*dG*d[5mC]*d[5mC]*dA*dT*d[5mC]*d[5mC]*dT*dT*e[5mC]*eT*eG*eA*eG; antisense) [compound 301043]
Averages from two experiments
  % INHIB (inhibition of human apolipoprotein B mRNA levels): 81%

## 332782 (antisense TCAGTCTGCTTCGC; all phosphorothioate, sugars by position and methylation of C not given here; 2'-MOE wings flank a DNA gap) [compound 332782]
10 nM, 24 hour (Table 41)
  % Change in apolipoprotein B mRNA expression: −16%
50 nM, 24 hour (Table 41)
  % Change in apolipoprotein B mRNA expression: −16%
150 nM, 24 hour (Table 41)
  % Change in apolipoprotein B mRNA expression: −69%
